Reference: patent publication US20230140290A1, “SALICYLAMIDE DERIVATIVES AND RELATED METHODS OF MAKING” (THE BOARD OF REGENTS OF THE UNIVERSITY OF TEXAS SY, priority 2020, published 2023)
Read-outs that look alike come from different tables or passages of the source.

Assays:
HAdV5-GFP [1] = experiment: Entry assay (HAdV5-mediated GFP expression); assay type: cell-based, HAdV-5; details: for inhibition at 50 µM: A549, 48 h, read-out: (%) Inhibition Entry Assay (50 μM); for (%) Inhibition Entry Assay (50 μM): 48 h
Description: Entry Assay. The anti-HAdV activity was measured in an entry assay using human A549 epithelial cells (3×10^5 cells/well in coming black wall, clear bottom 96-well plates) infected with HAdV5-GFP (2000 vp/cell) in the presence 50 μM of the candidates and in a dose-response assay. A standard infection curve was generated in parallel by infecting cells in the absence of compounds using serial 2-fold dilutions of virus. All reactions were done in triplicate. Cells, virus, and drugs were incubated for 48 h at 37° C. and 5% CO2.

A549 cells = experiment: Cytotoxicity assay (AlamarBlue); details: read-out: CC50 (μM), cytotoxic concentration 50%; A549 cell line, 48 h
Description: (§1) Cytotoxicity Assay. The cytotoxicity of the compounds was analyzed by commercial kit AlamarBlue® (Invitrogen, Ref. DAL1025). A549 cells at a density of 5×10^3 cells per well in 96-well plates were seeded. […] Cells were then incubated at 37° C. for 48 h following the kit protocol. The cytotoxic concentration 50 (CC50) value was obtained using the statistical package GraphPad Prism. This assay was performed in duplicate.

wild-type HAdV5 [2] = experiment: Nuclear-associated HAdV genomes (real-time PCR); assay type: cell-based, HAdV-5
Description: (§2) Nuclear-Associated HAdV Genomes. The nuclear delivery of HAdV genomes was assessed by real-time PCR following nuclear isolation from infected cells. […] Forty-five minutes after infection, A549 cells were trypsinized and collected and then washed twice with PBS. Then, cytoplasmic and nuclear fractions were separated using a hypotonic buffer solution and NP-40 detergent. The cell pellet was resuspended in 500 μL of 1×hypotonic buffer (20 mM Tris-HCl pH 7.4, 10 mM NaCl, 3 mM MgCl2) and incubated for 15 min at 4° C. Then, 25 μL of NP-40 was added and the samples were vortexed. The homogenates were centrifuged for 10 min at 835 g at 4° C. Following the removal of the cytoplasmic fraction (supernatant), HAdV DNA was isolated from the nuclear fraction (pellet) and from the cytoplasmic fraction using the QIAamp DNA Mini Kit (QIAGEN, Valencia, Calif.).
as §2, with “E.Z.N.A.® Tissue” for “QIAamp”, “DNA” for “DNA Mini”, “(Omega Bio-tek, Norcross, Ga.).” for “(QIAGEN, Valencia, Calif.).”

HCMV = HCMV DNA quantification by real-time PCR; assay type: cell-based, human cytomegalovirus; details: HFF cells, 72 h, 10-fold plaque IC50 (niclosamide 5 μM)
Description: HCMV DNA Quantification by Real-Time PCR. […] Then, cells were incubated for 72 h at 37° C. and 5% CO2 and HCMV DNA was purified from the cell lysate using the QIAamp DNA Mini Kit (Qiagen, Valencia, Calif.) following the manufacturer's instructions. Real-time PCR primers, mixtures and protocols were the same as previously reported (Sanchez-Cespedes et al., J. Med. Chem. 2016, 59, 5432-5448).

HAdV5-GFP [3] = experiment: Plaque assay (inhibition of HAdV plaque formation); assay type: cell-based, HAdV-5; details: for Selectivity index (SI): ratio of CC50 to IC50 in plaque assay; for inhibition at 10 µM: read-out: Plaque Assay (%) Inhibition (10 μM)
In short: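 Compounds were present in the post-infection mixture at 10 μM, or at 10 to 0.3 μM for dose-response. Infection used low MOI HAdV5-GFP (0.06 vp/cell) on 80-90% confluent cells, 2 h rocking at 37° C, then a PBS wash.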

wild-type HAdV5 [4] = experiment: HAdV DNA quantification by real-time PCR (DNA replication); assay type: cell-based, HAdV-5; details: 24 h
Description: DNA Quantification by Real-Time PCR. […] Infected cells were incubated 24 h at 37° C. in 500 μL of complete DMEM containing 25 μM of either compounds or the same volume of DMSO (positive control). All samples were done in duplicate. After 24 h of incubation at 37° C., DNA was purified from the cell lysate with the QIAamp DNA Mini Kit (QIAGEN, Valencia, Calif.) following the manufacturer's instructions. TaqMan primers and probes for a common region of the HAdV5 were designed with the GenScript Real-Time PCR (TaqMan) Primer Design software (GenScript). […] Real-time PCR mixtures consisted of 9.5 μL of the purified DNA, AQ1 and AQ2 at a concentration of 200 nM each and Probe at a concentration of 50 nM in a total volume of 25 μL. The PCR cycling protocol was 95° C. for 3 min followed by 40 cycles of 95° C. for 10 s and 60° C. for 30 s. Human glyceraldehyde-3-phosphate dehydrogenase (GAPDH) gene was used as internal control. Oligonucleotides sequences for GAPDH and conditions were those previously reported by Henke-Gendo et al. (2012).
For quantification, gene fragments from hexon, and GAPDH were cloned into the pGEM-T Easy vector (Promega) and known concentrations of template were used to generate a standard curve in parallel for each experiment. All assays were performed in thermal cycler LightCycler® 96 System (Roche).
(§3) HAdV DNA Quantification by Real-Time PCR. […] All samples were done in duplicate. After 24 h of incubation at 37° C., DNA was purified from the cell lysate with the E.Z.N.A.® Tissue DNA Kit (Omega Bio-tek, Norcross, Ga.) following the manufacturer's instructions. TaqMan primers and probes for a common region of the HAdV5 were designed with the GenScript Real-Time PCR (TaqMan) Primer Design software (GenScript). […] Real-time PCR mixtures consisted of 9.5 μL of the purified DNA, AQ1 and AQ2 at a concentration of 200 nM each and Probe at a concentration of 50 nM in a total volume of 25 μL. The PCR cycling protocol was 95° C. for 3 min followed by 40 cycles of 95° C. for 10 s and 60° C. for 30 s. Human glyceraldehyde-3-phosphate dehydrogenase (GAPDH) gene was used as internal control. Oligonucleotides sequences for GAPDH and conditions were those previously reported by Henke-Gendo et al. (2012).
as §3, with “DNA” for “HAdV DNA”

HAdV5-GFP [5] = experiment: Time of addition assay; assay type: cell-based, HAdV-5
Description: (§4) Time of Addition Curve Study. […] Parallel samples of HAdV-5 were incubated with or without the selected derivatives on ice for 1 h. […] The derivatives were added at the indicated time points before or during this incubation. After a total of 2 h at 37° C., cells were incubated for an additional 48 h at 37° C. and 5% CO2 before being analyzed for GFP expression using the Typhoon 9410 imager (GE Healthcare Life Sciences) as above.
as §4, with “Assay.” for “Curve Study.”
as §4, with “Assay.” for “Curve Study.”, “compounds” for “derivatives”, “Compounds 153 and 161” for “The derivatives”

[6] = Cytotoxicity assay (AlamarBlue); details: human, A549 cells
Description: as §1

[7] = Maximum tolerated dose (MTD); details: immunosuppressed Syrian hamster, intraperitoneal
Description: Maximum tolerated dose (MTD). […] Before dosing, compounds were diluted in 10% DMSO, 10% Cremophor EL and 80% sodium chloride physiological solution. […] At day 14 animals were sacrificed with a lethal dose of thiopental. All inoculations were done via intraperitoneal.

HAdV5 = experiment: HAdV-mediated endosome disruption (α-sarcin co-delivery assay); assay type: cell-based, HAdV-5; details: FIG. 11; A549, 5 μM, independent of virus concentration
HAdV5-GFP [8] = details: read-out: IC50, inhibition of HAdV infection; Marrugal-Lorenzo et al. 2019; cited from earlier work
[9] = A549, read-out: IC50 Entry Assay (μM), HAdV5-GFP, high MOI, A549 cell line
[10] = FIG. 5A, 45 min post-infection, 10-fold plaque IC50
[11] = read-out: Plaque Assay IC50 (μM), HAdV5-GFP, low MOI, 293β5 cell line

Row | Compound | inhibition at 50 µM (HAdV5-GFP [1]) [%] | IC50 (HAdV5-GFP [1]; [9]) [µM] | amount of nuclear-associated HAdV genomes versus DMSO (wild-type HAdV5 [2]; [10]) | Selectivity index (SI) (HAdV5-GFP [3]) | inhibition at 10 µM (HAdV5-GFP [3]) [%] | IC50 (HAdV5-GFP [3]; [11]) [µM] | further results
1 | O=C(Nc1ccc(NC2CCCC2)cc1Cl)c1cc(Cl)ccc1O [Compound 78, 5-Chloro-N-(2-chloro-4-(cyclopentylamino)phenyl)-2-hydroxybenzamide] | 27.5 ± 3.8 | > 50 | no significant differences | 185.8 | 100 | 0.5 ± 0.1 | CC50 (A549 cells): 92.9 ± 7.1 µM; decrease of total HCMV DNA compared to the DMSO control (HCMV): no significant inhibition; inhibition of HAdV-5 DNA replication (qPCR) (wild-type HAdV5 [4]; FIG. 6A, 10-fold plaque IC50): moderate inhibition
2 | O=C(Nc1ccc(C(F)(F)F)cc1Cl)c1cc(Cl)ccc1O [Compound 14, 5-Chloro-N-(2-chloro-4-(trifluoromethyl)phenyl)-2-hydroxybenzamide] | 100 | 1.67 ± 0.25 |  |  | 100 | 0.08 | amount of nuclear-associated HAdV genomes versus DMSO (wild-type HAdV5 [2]; FIG. 3, 45 min post infection, concentrations by CC50 (2-50 μM)): partially inhibited; loss of inhibition when added between 5 and 10 min p.i. (HAdV5-GFP [5]; FIG. 2, 10 μM): 20%; inhibition of HAdV-5 DNA replication (qPCR) (wild-type HAdV5 [4]; FIG. 4, concentrations by CC50 (2-50 μM)): significant (p≤0.0001) inhibitory activity
3 | CC(C)(C)OC(=O)N1CCC(CNc2ccc(NC(=O)c3cc(Cl)ccc3O)c(Cl)c2)CC1 [Compound 126, tert-Butyl 4-(((3-chloro-4-(5-chloro-2-hydroxybenzamido)phenyl)amino)methyl)piperidine-1-carboxylate] | 67.6 | < 3.13 | partially inhibited | 102.2 | 97.8 ± 1.4 | 0.93 | CC50 at 48 h [6]: 95 µM; anti-HAdV activity when added between 10 and 20 min p.i. (HAdV5-GFP [5]; FIG. 7, 10-fold plaque IC50): loses its anti-HAdV activity
4 | O=C(Nc1ccc([N+](=O)[O-])cc1Cl)c1cc(Cl)ccc1O [Compound 6, niclosamide, reference compound] |  |  |  |  |  |  | (%) Inhibition Entry Assay (50 μM) (HAdV5-GFP [1]; HAdV5-GFP, high MOI, A549 cell line): 100.0 ± 0.0%; (%) Inhibition Entry Assay (50 μM) (HAdV5-GFP [1]; HAdV5-GFP, high MOI, A549 cell line, listed as 73, 50 µM): 100 ± 0%; IC50 (HAdV5-GFP [1]; HAdV5-GFP, high MOI, A549 cell line, read-out: IC50 Entry Assay): 1.22 ± 0.44 µM; doses showing high toxicity [7]: ≥ 5 mg/kg; rate of HPG incorporation compared to a control without α-sarcin (HAdV5): under 50%; IC50 (HAdV5-GFP [8]): 0.6 µM; Plaque Assay (%) Inhibition (10 μM) (HAdV5-GFP [3]; HAdV5-GFP, 10 μM, low MOI, 293β5 cell line): 100 ± 0%; IC50 (HAdV5-GFP [3]; HAdV5-GFP, low MOI, 293β5 cell line, read-out: Plaque Assay IC50): 0.6 µM
